# Data as given in patent publication US10835505B2, “Oral pharmaceutical formulation for weight loss, diabetes and related disorders” (priority 2018, dated 2020).
# Where a name gives a salt, the structure may show the parent alone.
# Experiments:
# [1] = judged, times more bitter than denatonium benzoate; cited from earlier work
# [2] = in vivo; cited from earlier work
# [3] = C57BL/6 DIO mice, 60 μmol/kg DB (26.8 mg/kg) once daily, 28-day period, vs vehicle; cited from earlier work
# TAS2R subtypes = conditions: cited from earlier work
# [4] = acute food intake inhibition study, oral gavage, Sprague Dawley rats; format: in vivo
# Description: In a short-term food intake inhibition study, in Sprague Dawley rats the doses of DB administered were 7.5, 15, 30, and 60 μmol/kg. The corresponding human equivalent doses (HED) are be 1.2, 2.4, 4.9, 9.7 μmol/kg, respectively. In a longer-term food intake inhibition study in C57BL/6NTac mice the dose of DB used was 60 μmol/kg. The corresponding HED was 4.9 μmol/kg. […] Therefore, the disclosed formulation provides a dose of DB from about 500 nmol/kg to about […], which corresponds to from about 10 mg to about 200 mg for a human adult.
# This example provides the results of an oral dose rat gavage study, measuring food and water intake following administration of a disclosed formulation by gavage. We conducted an acute food intake inhibition study of DB in Sprague Dawley rats.
# For a longer term study, in view of the foregoing acute study findings, the effect of a combination of components was investigated. To ensure the adequate effect of the DB combination, 60 μmol/kg (26.8 mg/kg) once daily for DB in the first two weeks of the study was used, and then switched to twice daily in the last two weeks of the study.
# [5] = normal C57BL/6 mice, oral DB only at 60 μmol/kg (26.8 mg/kg); cited from earlier work
# [6] = healthy volunteers, 1 μmol/kg DB; cited from earlier work
structure (smiles),measurement,setting,value
"CC[N+](CC)(CC(=O)Nc1c(C)cccc1C)Cc1ccccc1 [denatonium saccharide, benzyl-[2-(2,6-dimethylanilino)-2-oxoethyl]-diethylazanium; 1,1-dioxo-1,2-benzothiazol-3-olate]",bitterness relative to denatonium benzoate,[1],5 times
"CN1CCc2cccc3c2[C@H]1Cc1ccc(O)c(O)c1-3 [Apomorphine, (6aR)-5,6,6a,7-Tetrahydro-6-methyl-4H-dibenzo(de,g)chinolin-10,11-diol hydrochlorid]",oral availability,[2],~4%
"CC[N+](CC)(CC(=O)Nc1c(C)cccc1C)Cc1ccccc1.O=C([O-])c1ccccc1 [DB, benzyl-[2-(2,6-dimethylanilino)-2-oxoethyl]-diethylazanium benzoate]",body weight,[3],induced a decrease in body weight
same,number of TAS2R subtypes activated,TAS2R subtypes,eight
same,food intake,"[4]; Sprague Dawley rats, various doses of DB by gavage, within the first 6 h after administration",significantly inhibited food intake
same,half-life,"[4]; rat, in vivo, oral, inferred from duration of food intake inhibition in Sprague Dawley rats",6 h
same,gastric emptying rate,[5],significantly inhibited gastric emptying rate
same,nutrient volume tolerance,[6],decreased nutrient volume tolerance
same,satiation,[6],increased satiation
"C=C[C@H]1C[N@]2CC[C@H]1C[C@H]2[C@H](O)c1ccnc2ccc(OC)cc12 [Quinine, (R)-[(2S,4S,5R)-5-ethenyl-1-azabicyclo[2.2.2]octan-2-yl]-(6-methoxyquinolin-4-yl)methanol, reference compound]",number of TAS2R subtypes activated,TAS2R subtypes,nine
"O=C(/C=C/c1ccc(O)c(O)c1)O[C@@H]1C[C@]2(O)C[C@@H](OC2=O)[C@@H]1O [3-CQL, (1R,3R,4R,5R)-1,4-Dihydroxy-7-oxo-6-oxabicyclo[3.2.1]oct-3-yl (2E)-3-(3,4-dihydroxyphenyl)acrylate]",number of TAS2R subtypes activated,TAS2R subtypes,eight
